# Test results taken from PMC11220654, “A Frog Skin‐Derived Peptide Targeting SCD1 Exerts Radioprotective Effects Against Skin Injury by Inhibiting STING‐Mediated Inflammation” (Advanced Science, 2024).
# Assays:
# Format in all cases: cell-based, human
# irradiated HaCaT cells = test: Autophagy, mRFP-GFP-LC3 infection study and LC3 II Western blotting; conditions: 15 µM RIFSP-2, Western blotting
# Description: Figure 4 MUFAs facilitate ionizing radiation‐induced STING activation, which is disrupted by RIFSP‐2. A) Bioinformatic analysis of the connection between specific binding proteins of RIFSP‐2 (green nodes) and STING (red nodes) in irradiated skin cells. B) Detection of the phosphorylation of STING in RIFSP‐2‐treated and irradiated HaCaT cells through IP analysis. C) Detection of the phosphorylation of TBK1 in RIFSP‐2‐treated primary skin cells from STING wild type mice and depletion ones through Western blotting analysis. D) Investigation of the interaction between STING and RIFSP‐2 in irradiated HaCaT cells based on the established Avidin‐Biotin‐RIFSP‐2 system. E) Volcano plots of differences between lipid class in irradiated HaCaT cells pretreated with RIFSP‐2 or not. F) Influence of LPC (18:1) and RIFSP‐2 in STING downstream signals in irradiated HaCaT cells through Western blotting analysis. G) Influence of LPC (18:1) and RIFSP‐2 in STING downstream inflammatory factors in irradiated HaCaT and RAW 264.7 cells through ELISA assays. […] J) Alteration of biomarkers for autophagy and pyroptosis in irradiated HaCaT cells pretreated with 15 µM RIFSP‐2 in combination with H151 or MF438, detected by Western blotting. *P < 0.05 and **P < 0.01, compared with the control group. […]
# irradiated skin cells = test: LDH release and JC-1 staining with H151; conditions: RIFSP-2 15 µM
# Description: Next, we investigated whether suppression of the SCD1‐MUFA‐STING axis by RIFSP‐2 accounts for its protective effect against radiation injury in skin cells. […] Besides, Sting knockout dramatically limited the clonogenic formation ability after administration of RIFSP‐2 (Figure S4F, Supporting Information).
# Figure 5 RIFSP‐2 mitigates radiation injury in a STING‐related manner. A) Cell proliferation and death assays for influence of RIFSP‐2 in primary skin cells from STING‐depleted and wild‐type mice detected by CCK‐8 and LDH analysis. B) LDH analysis of irradiated and nonirradiated skin cells pretreated with 15 µM RIFSP‐2 in combination with H151 or not. […]
# A clonogenic survival assay of skin cells was performed as previously reported (1). […] Colonies consisting of 50 or more cells were counted as a clone. The relative clonogenic survival fraction was calculated using ImageJ software as previously reported […]
# Cells were seeded in a 96-well plate at a density of 1 X 10^4 cells per well. […] In vitro viability was measured using the Cell Counting Kit-8 (CCK-8) (Dojindo Laboratories, Kumamoto, Japan).
# Optical density was measured at 450 nm using a microplate reader (Biotek, Winooski, VT).
# Cell death was measured by the level of LDH released into the supernatant using an LDH cytotoxicity assay kit (Beyotime, Nantong, China) according to the manufacturer’s instructions. […]
# skin cells [1] = test: BODIPY 493/503 probe staining, neutral lipid droplets; conditions: pretreatment
# Description: (§1) Figure 3 RIFSP‐2 restrained SCD1‐mediated biogenesis of MUFA in irradiated skin cells. A) Schematic showing the proteomic analysis performed to investigate the interactome of RIFSP‐2 in irradiated skin cells, as determined by liquid chromatography with tandem mass spectrometry (LC–MS/MS), based on the Avidin‐Biotin‐RIFSP‐2 system. B) Bradford staining of proteins pulled down with Biotin‐RIFSP‐2 and Venn diagram showing common and specific interactomes detected by LC–MS/MS and representative proteins. C) The enriched functions of RIFSP‐2 interactomes in irradiated skin cells based on Gene Ontology (GO) molecular function analysis. D) Colocalization analysis showing FITC‐RIFSP‐2 (green) and ER‐Tracker (red) in irradiated HaCaT cells. E) Changes in neutral lipid droplet formation in irradiated skin cells treated with RIFSP‐2 detected via BODIPY 493/503 probe staining. F) Verification of the interaction between RIFSP‐2 and SCD1 through immunoprecipitation (IP) analysis. G) Molecular simulation of the interaction between RIFSP‐2 and SCD1. […] M–P) Influence of the SCD1 inhibitor MF438 on the neutral lipid droplet formation, ferroptosis, and apoptosis of irradiated skin cells pretreated with RIFSP‐2, as detected by BODIPY 493/503 probe staining, BODIPY 581/591 C11 probe staining and AV/PI staining. *P < 0.05 and **P < 0.01, compared with the control group. […]
# [2] = tested on: STING phosphorylation in irradiated skin cells; test: STING phosphorylation by IP analysis; conditions: irradiated skin cells (HaCaT)
# Description: Considering the localization of RIFSP‐2 in ER, we then investigated the potential connection between RIFSP‐2 and STING. First, we adopted a proteomic analysis to investigated the interactomes of STING in HaCaT cells, and identified 136 specific proteins in response to radiation. Then, strong connections between specific interactomes for RIFSP‐2 and STING in irradiated skin cells were established in protein interactive analysis, with confidence score > 0.7 (high confidence) (Figure 4A).
# Figure 4 MUFAs facilitate ionizing radiation‐induced STING activation, which is disrupted by RIFSP‐2. A) Bioinformatic analysis of the connection between specific binding proteins of RIFSP‐2 (green nodes) and STING (red nodes) in irradiated skin cells. B) Detection of the phosphorylation of STING in RIFSP‐2‐treated and irradiated HaCaT cells through IP analysis. C) Detection of the phosphorylation of TBK1 in RIFSP‐2‐treated primary skin cells from STING wild type mice and depletion ones through Western blotting analysis. […] J) Alteration of biomarkers for autophagy and pyroptosis in irradiated HaCaT cells pretreated with 15 µM RIFSP‐2 in combination with H151 or MF438, detected by Western blotting. *P < 0.05 and **P < 0.01, compared with the control group. […]
# Cells were subjected to indicated treatments. […] The protein level was detected by the indicated antibodies with Western blotting analysis.
# skin cells [3] = test: BODIPY 581/591 C11 probe (ferroptosis) and AV/PI staining
# Description: as §1, with “[…],” for “ferroptosis, and apoptosis of irradiated skin cells pretreated with RIFSP‐2,”
Compound,influence of pretreatment on the increase in LC3 II levels induced by RIFSP-2 (irradiated HaCaT cells),LDH release (irradiated skin cells),formation of neutral lipid droplets (skin cells [1]),STING phosphorylation [2],influence of pretreatment on the RIFSP-2 effects on ferroptosis and AV staining (skin cells [3])
CCc1ccc(NC(=O)Nc2c[nH]c3ccccc23)cc1 [H151],not,attenuated LDH release,,,
Cc1nnc(-c2ccc(N3CCC(Oc4ccccc4C(F)(F)F)CC3)nn2)s1 [MF‐438],dramatically limited the increase in LC3 II levels,,effectively promoted the formation of neutral lipid droplets,significant reduction in STING phosphorylation,diminished these effects
